# Patent publication US10435379B2, “[4-(1,3,3-trimethyl-2-OXO-3,4-dihydro-1H-quinoxalin-7-yl)phenoxy]ethyloxy compound or salt thereof” (SANTEN PHARMACEUTICAL CO., LTD., priority 2015, dated 2019)
# System: IL-6 production in human corneal epithelium cell line (HCE-T)
# Assay: IL-6 production inhibitory action evaluation test after LPS stimulation
# Type: cell-based
# Details: 4 hours, 100 μM test compound solution 10 μL/well, DEX treated group = 100
# Experimental: To evaluate the action of the present compounds as a GR agonist, IL-6 production inhibitory action in human corneal epithelial cell line after LPS stimulation was examined The IL-6 production was measured by using the HTRF method (Cat No. 62IL6PEB manufactured by Cisbio Bioassays, Inc.) according to the attached protocol. The specific method is described below.
# LPS solution: After dissolving LPS in PBS(−), the resulting solution was diluted with a culture solution, whereby an LPS solution with a 1 μg/mL concentration was prepared.
# After dissolving the test compound in dimethylsulfoxide, the solution was diluted with a 10% FBS-DMEM/Ham's F12 medium, whereby a 100 μM of the test compound solution was prepared. […] In addition, DEX was similarly dissolved, whereby a 100 μM concentration of the DEX solution was prepared, and an IL-6 production inhibitory ratio of DEX was measured, and used for calculation of Efficacy (% DEX).
# Used cells: human corneal epithelium cell line (HCE-T) (RIKEN, Institute of Physical and Chemical Research)
# The cells continued to subculture according to this method were used for the test.
# (Calculation of IL-6 Production Inhibitory Ratio)
# The IL-6 production inhibitory ratio (%) was calculated by the following formula. IL-6 production inhibitory ratio (%)=100×{1−(IL-6 produced amount of each test compound solution−average value of IL-6 produced amount of negative control group)/(average value of IL-6 produced amount of positive control group−average value of IL-6 produced amount of negative control group)}(%)
# Further, the IL-6 production inhibitory ratio (Efficacy (% DEX)) when the DEX treated group was made 100 was calculated. Efficacy (% DEX)=100×{(average value of IL-6 production inhibitory ratio of each test compound solution)/(average value of IL-6 production inhibitory ratio of DEX treated group)}(%)
# In addition, IC50 was calculated according to a conventional method. IDBS XLfit4 was used for the calculation.
row,SMILES,IL-6 production inhibitory ratio (% DEX)
1,"CC[C@@H](O)COc1ccc(-c2ccc3c(c2COc2cc(F)ccc2C)N(C)C(=O)C(C)(C)N3)c(OC)c1 [Compound 1-4, (R)-8-(5-fluoro-2-methylphenoxymethyl)-7-[4-(2-hydroxybutyl)oxy-2-methoxyphenyl]-1,3,3-trimethyl-3,4-dihydro-1H-quinoxalin-2-one]",92
2,"COc1cc(OC[C@H](O)CC#N)ccc1-c1ccc2c(c1COc1cc(F)ccc1C)N(C)C(=O)C(C)(C)N2 [Compound 5-1, (R)-7-[4-(3-cyano-2-hydroxypropyl)oxy-2-methoxyphenyl]-8-(5-fluoro-2-methyl-phenoxymethyl)-1,3,3-trimethyl-3,4-dihydro-1H-quinoxalin-2-one]",98
3,"COc1cc(OC[C@@H](O)CC#N)ccc1-c1ccc2c(c1COc1cc(F)ccc1C)N(C)C(=O)C(C)(C)N2 [Compound 5-2, (S)-7-[4-(3-cyano-2-hydroxypropyl)oxy-2-methoxyphenyl]-8-(5-fluoro-2-methyl-phenoxymethyl)-1,3,3-trimethyl-3,4-dihydro-1H-quinoxalin-2-one]",>99
4,"COc1cc(OCC(O)CC(=O)OC(C)(C)C)ccc1-c1ccc2c(c1COc1cc(F)ccc1C)N(C)C(=O)C(C)(C)N2 (stereo not drawn) [Compound 7-2, 7-[4-(3-t-butoxycarbonyl-2-hydroxypropyl)oxy-2-methoxyphenyl]-8-(5-fluoro-2-methylphenoxymethyl)-1,3,3-trimethyl-3,4-dihydro-1H-quinoxalin-2-one]",>99
5,"COc1ccc(O)cc1-c1ccc2c(c1COc1cc(F)ccc1C)N(C)C(=O)C(C)(C)N2 [Control compound C, 8-(5-fluoro-2-methylphenoxymethyl)-7-(5-hydroxy-2-methoxyphenyl)-1,3,3-trimethyl-3,4-dihydro-1H-quinoxalin-2-one, reference compound]",71

# Molecular target: Recombinant human GR (Homo sapiens (Human), UniProt P04150)
# Sequence (P04150 whole entry): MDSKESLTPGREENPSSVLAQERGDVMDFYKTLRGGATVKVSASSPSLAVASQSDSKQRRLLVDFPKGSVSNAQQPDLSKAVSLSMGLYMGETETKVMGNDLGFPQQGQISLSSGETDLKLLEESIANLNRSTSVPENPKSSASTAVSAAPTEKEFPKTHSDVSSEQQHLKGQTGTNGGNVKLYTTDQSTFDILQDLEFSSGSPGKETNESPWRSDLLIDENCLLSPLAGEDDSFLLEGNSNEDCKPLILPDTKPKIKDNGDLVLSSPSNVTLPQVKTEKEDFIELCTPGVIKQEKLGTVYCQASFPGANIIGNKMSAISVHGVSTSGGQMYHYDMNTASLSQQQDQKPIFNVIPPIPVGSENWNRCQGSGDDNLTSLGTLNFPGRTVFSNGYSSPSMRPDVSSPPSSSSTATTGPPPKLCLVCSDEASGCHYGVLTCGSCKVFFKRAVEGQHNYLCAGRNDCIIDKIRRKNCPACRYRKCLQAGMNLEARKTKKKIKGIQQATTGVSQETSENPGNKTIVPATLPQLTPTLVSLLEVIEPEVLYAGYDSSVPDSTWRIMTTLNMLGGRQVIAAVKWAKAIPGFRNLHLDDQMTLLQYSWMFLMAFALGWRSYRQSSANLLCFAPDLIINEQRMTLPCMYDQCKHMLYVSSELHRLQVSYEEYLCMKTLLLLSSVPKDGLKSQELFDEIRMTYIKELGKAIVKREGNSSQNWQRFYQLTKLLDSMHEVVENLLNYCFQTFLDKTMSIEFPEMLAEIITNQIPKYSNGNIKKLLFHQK
# Assay: GR binding activity evaluation test (GR competitive binding assay, fluorescence polarization)
# Details: 20 μM test compound solution, 10 μL/well; 2 mM DEX as positive control; 2 hours at room temperature
# Experimental: In order to evaluate a binding activity of the present compound to GR, a GR receptor competitor assay was carried out by a fluorescence polarization method. In the assay, a GR competitive binding assay kit (manufactured by Invitrogen, cat No. P2816) was used for the assay, and a procedure was carried out according to the protocol attached to the kit. Hereinafter, the specific method will be described.
# GR screening buffer: A buffer containing 10 mM of potassium phosphate (pH 7.4), 20 mM of sodium molybdate (Na2MoO4), 0.1 mM of ethylene diamine tetraacetic acid (EDTA), 5 mM of dithiothreitol (DTT), 0.1 mM of stabilizing peptide and 2% of dimethylsulfoxide was prepared.
# 4×GS1 solution: Fluormone™ GS1, which is a fluorescent glucocorticoid ligand, was diluted with GR screening buffer, whereby a 4 nM solution was prepared. […]
# 5) The plate was incubated in a dark place at room temperature for 2 hours, and fluorescence polarization of each well was measured.
# A GR binding ratio (%) was calculated from the following equation. GR binding ratio (%)=100×{1−(fluorescence polarization of test compound solution−average value of fluorescence polarization of positive control solution)/(average value of fluorescence polarization of negative control solution−average value of fluorescence polarization of positive control solution)} (Test Results and Discussion)
row,GR binding rate (%),SMILES
1,>99,"COc1cc(OCC(O)CO)ccc1-c1ccc2c(c1COc1cc(F)ccc1C)N(C)C(=O)C(C)(C)N2 (stereo not drawn) [Compound 4-1, 7-[4-(2,3-dihydroxypropyl)oxy-2-methoxyphenyl]-8-(5-fluoro-2-methylphenoxymethyl)-1,3,3-trimethyl-3,4-dihydro-1H-quinoxalin-2-one]"
